Laboratory results taken from US20070020193A1, “Dronabinol compositions and methods for using same” (priority 2005, published 2007).
“And” between values parts separate entries of the source, which are not always exact repeats. Identical values can stand only once. “Also recorded” adds a separate entry of the source. Marks after values point to notes of the source that are not given here.

Legend:
healthy subjects [1] = experiment: Example 1: conjunctiva congestion rating; assay type: in vivo, human
Text: Conjunctiva Congestion was rated by a trained observer on a scale of 0-3 based on the blood vessels present as follows:
0—None (The white of the eye was not affected)
3—Considerable (The compete white of the eye is red caused by a pattern of bigger vessels. This is associated with complaints.)
Absolute values of heart rate and conjunctive congestion scores were used to calculate changes from baseline.

[2] = Example 2 multiple rising dose inhaled delta-9-THC study: plasma pharmacokinetics; conditions: for AUC(0-t) / AUC(0-inf) / Cmax / half-life / Tmax: human, plasma; for AUC(0-t): AUC(0-8)
Protocol: A randomized, double-blind, placebo-controlled, multiple rising dose safety, tolerability, pharmacokinetic and pharmacodynamic study to assess two dose levels of inhaled delta-9-THC was conducted. Dose levels were studied in ascending order. Two consecutive groups (n=9/group) of healthy subjects were studied (Groups I and II). […] There was a lapse of at least 10 days between the groups for interim safety and pharmacokinetic analysis. Two dose levels were studied in ascending order. […] Subjects in each treatment Group (I or II) received single and multiple doses of inhaled delta-9-THC according to the following schedule:
For both dose levels, the first and the last dose of study drug was given under fasted conditions. Subjects were confined to the study site from the evening of Day −2 (Day 1 is the day of administration of the first dose of study drug) until the 120-hour blood sample following the final dose of study drug, resulting in an 18-day confinement period for subjects in Group I and a 25-day confinement period for Group II. Between the completion of Group I and the start of Group II, an interim safety and pharmacokinetic analysis was performed. Based on the results of the interim analyses, the dose level for investigation in Group II was determined.
Two MDI dosage strengths were used corresponding to the same formulations used in Example 1: one delivering 0.3 mg delta-9-THC (or placebo) per actuation and one delivering 1.2 mg delta-9-THC (or placebo) per actuation. The MDI consisted of a pressurized (via propellants) container and a metered-dose valve. The propellants provided the necessary force to expel the drug, and also acted as a solvent and diluent. The canister unit was provided within a mouthpiece (oral adapter), to expel an exact amount of drug, in the proper particle size distribution, upon each actuation. Two basic formulations containing 0.3 and 1.2 mg of delta-9-THC per 50 μL were developed with propellant 1,1,1,2 tetrafluoroethane 134a (HFA 134a), and ethanol as solvent. The formulations were made in accordance with the composition used in Example 1.
Whole blood samples were collected according to the assessment flowchart in EDTA tubes through venepuncture or indwelling catheter. Samples were immediately placed on ice and subsequently centrifuged within 30 minutes at 1,500 g for 10 minutes. Plasma was transferred into a 5 ml screw cap polypropylene tube, stoppered and stored at below minus 20° C. until transfer to the analytical laboratory for analysis. […] The measurement ranges were 0.05-30 ng/ml for delta-9-THC, 0.04-30 ng/ml for 11-OH-THC, and 0.25-10 ng/ml for THC-COOH.
For Example 2: The statistical analysis encompassed an exploratory analysis of the single and multiple dose pharmacokinetics and dose proportionality of two dose levels of inhaled delta-9-THC in healthy subjects. Descriptive statistics included number of subjects, mean, standard deviation, coefficient of variation (%) and geometric mean for all pharmacokinetic parameters.
The exploratory analysis was performed on the logarithms of the dose-normalized pharmacokinetic parameters AUC(0-inf), AUC(0-t), AUC(0-τ) and Cmax. Dose proportionality was tested both at single dose and at multiple dose (steady state) by comparing the dose groups for all pharmacokinetic parameters by an analysis of variance with dose as fixed effect.
Dose proportionality was tested by the contrast between the dose groups. For this contrast on the logarithmic scale, p-values were given. After anti-logarithmic transformation, the resultant ratios of geometric means and 90% confidence intervals were given.
Accumulation was tested by comparing the steady state values for AUC(0-τ) with the single dose values for AUC(0-τ) by a mixed model analysis of variance with dose and day (with levels single dose and steady state) as fixed effects and subject within dose as random effect.

healthy subjects [3] = tested on: healthy subjects; set-up: species or system human; conditions: in vivo
[4] = inhaled, 1.2 mg, Arithmetic Mean (SD), 1.2 mg m.d., Day 12, Group I
[5] = inhaled, 1.2 mg, Arithmetic Mean (SD), 1.2 mg s.d., Day 1
[6] = inhaled, 1.2 mg, Geometric Mean (Range), 1.2 mg s.d., Day 1
[7] = inhaled, 3.6 mg, Arithmetic Mean (SD), 3.6 mg m.d., Day 19, Group II
[8] = inhaled, 3.6 mg, Arithmetic Mean (SD), 3.6 mg s.d., Day 1
[9] = inhaled, 3.6 mg, Geometric Mean (Range), 3.6 mg s.d., Day 1

CCCCCc1cc(O)c2c(c1)OC(C)(C)[C@@H]1CCC(C)=C[C@@H]21 [delta-9-THC, delta-9-tetrahydrocannabinol]
number of occurrences of slight congestion (healthy subjects [1]; 9.6 mg dose group): 3
conjunctiva congestion (healthy subjects [1]; 0.3 to 7.2 mg doses): no or substantially no conjunctiva congestion
occurrence of slight conjunctiva congestion (healthy subjects [1]; each of the 3.6 and 7.2 mg doses): once
achievement of steady state ([2]; 1.2 mg delta-9-THC three times daily): apparently reached after six days of dosing
accumulation during multiple dosing ([2]; 8-hours dosing interval): no statistically significant accumulation
Ratio AUC(0-8) m.d./AUC(0-8) s.d. (Accumulation factor), Mean ([2]; Group I, 1.2 mg): 0.85
Ratio AUC(0-8) m.d./AUC(0-inf) s.d. (Linearity), Mean ([2]; Group I, 1.2 mg): 0.79
Ratio AUC(0-8) m.d./AUC(0-8) s.d. (Accumulation factor), Mean ([2]; Group II, 3.6 mg): 1.15
Ratio AUC(0-8) m.d./AUC(0-inf) s.d. (Linearity), Mean ([2]; Group II, 3.6 mg): 1.02
dose proportionality: geometric mean ratio (3.6 mg:1.2 mg) of dose-normalized AUC(0-8) (90% confidence interval) ([2]; Multiple dose): 1.10 (0.55-2.18)
dose proportionality: geometric mean ratio (3.6 mg:1.2 mg) of dose-normalized Cmax (90% confidence interval) ([2]; Multiple dose): 1.81 (0.52-6.24)
dose proportionality: geometric mean ratio (3.6 mg:1.2 mg) of dose-normalized AUC(0-8) (90% confidence interval) ([2]; Single dose): 0.77 (0.50-1.18)*
dose proportionality: geometric mean ratio (3.6 mg:1.2 mg) of dose-normalized AUC(0-inf) (90% confidence interval) ([2]; Single dose): 0.79 (0.51-1.23)
dose proportionality: geometric mean ratio (3.6 mg:1.2 mg) of dose-normalized AUC(0-t) (90% confidence interval) ([2]; Single dose): 0.81 (0.52-1.25)
dose proportionality: geometric mean ratio (3.6 mg:1.2 mg) of dose-normalized Cmax (90% confidence interval) ([2]; Single dose): 0.71 (0.38-1.37)
dose proportionality of pharmacokinetic parameters ([2]; after single or multiple dose administration): not found to deviate significantly
plasma concentration-time curve, elimination profile ([2]; both dose levels): at least a bi-phasic elimination profile
systemic absorption ([2]; both dose levels, inhaled): rapid systemic absorption
AUC(0-t) [2, 4]: 5.74 ng·h/mL
AUC(0-t) [2, 5]: 6.61 ng·h/mL
AUC(0-t) ([2]; inhaled, 1.2 mg, Geometric Mean (Range), 1.2 mg m.d., Day 12, Group I): 4.52 ng·h/mL
AUC(0-t) [2, 6]: 6.1 ng·h/mL
AUC(0-inf) [2, 5]: 7.14 ng·h/mL
AUC(0-inf) [2, 6]: 6.55 ng·h/mL
Cmax [2, 4]: 12.3 ng/mL
Cmax ([2]; inhaled, 1.2 mg, Arithmetic Mean (SD), 1.2 mg s.d., Day 1, plasma): 24 ng/mL
Cmax ([2]; inhaled, 1.2 mg, Geometric Mean (Range), 1.2 mg m.d. (three times daily), Day 12, Group I): 6.9 ng/mL
Cmax ([2]; inhaled, 1.2 mg, Geometric Mean (Range), 1.2 mg s.d., Day 1, plasma): 19.7 ng/mL
half-life ([2]; inhaled, 1.2 mg, terminal elimination half-life, multiple dosing): 24 h
Tmax ([2]; inhaled, 1.2 mg, tmax, Arithmetic Mean (SD), 1.2 mg m.d., Day 12, Group I): 3.6 min
Tmax ([2]; inhaled, 1.2 mg, tmax, Arithmetic Mean (SD), 1.2 mg s.d., Day 1): 2.4 min
Tmax ([2]; inhaled, 1.2 mg, tmax, median (range), 1.2 mg m.d., Day 12, Group I): 3.6 min
Tmax ([2]; inhaled, 1.2 mg, tmax, median (range), 1.2 mg s.d., Day 1): 1.8 min
half-life ([2]; inhaled, 1.2 mg, t½, Arithmetic Mean (SD), 1.2 mg m.d., Day 12, Group I): 29.1 h
half-life ([2]; inhaled, 1.2 mg, t½, Arithmetic Mean (SD), 1.2 mg s.d., Day 1): 4.02 h
half-life ([2]; inhaled, 1.2 mg, t½, Geometric Mean (Range), 1.2 mg m.d., Day 12, Group I): 25.3 h
half-life ([2]; inhaled, 1.2 mg, t½, Geometric Mean (Range), 1.2 mg s.d., Day 1): 3.39 h
AUC(0-t) [2, 7]: 15.8 ng·h/mL
AUC(0-t) [2, 8]: 14.7 ng·h/mL
AUC(0-t) ([2]; inhaled, 3.6 mg, Geometric Mean (Range), 3.6 mg m.d., Day 19, Group II): 14.9 ng·h/mL
AUC(0-t) [2, 9]: 14 ng·h/mL
AUC(0-inf) [2, 8]: 16.3 ng·h/mL
AUC(0-inf) [2, 9]: 15.6 ng·h/mL
Cmax [2, 7]: 40.4 ng/mL
Cmax ([2]; inhaled, 3.6 mg, Arithmetic Mean (SD), 3.6 mg s.d., Day 1, plasma): 44.7 ng/mL
Cmax ([2]; inhaled, 3.6 mg, Geometric Mean (Range), 3.6 mg m.d. (three times daily), Day 19, Group II): 37.4 ng/mL
Cmax ([2]; inhaled, 3.6 mg, Geometric Mean (Range), 3.6 mg s.d., Day 1, plasma): 42.5 ng/mL
half-life ([2]; inhaled, 3.6 mg, Terminal elimination half-lives (summary estimate), summary, best estimated after multiple dosing): ~93 h
half-life ([2]; inhaled, 3.6 mg, terminal elimination half-life, multiple dosing): 93 h
Tmax ([2]; inhaled, 3.6 mg, tmax, Arithmetic Mean (SD), 3.6 mg m.d., Day 19, Group II): 2.4 min
Tmax ([2]; inhaled, 3.6 mg, tmax, Arithmetic Mean (SD), 3.6 mg s.d., Day 1): 4.8 min
Tmax ([2]; inhaled, 3.6 mg, tmax, median (range), 3.6 mg m.d., Day 19, Group II): 1.8 min
Tmax ([2]; inhaled, 3.6 mg, tmax, median (range), 3.6 mg s.d., Day 1): 4.8 min
half-life ([2]; inhaled, 3.6 mg, t½, Arithmetic Mean (SD), 3.6 mg m.d., Day 19, Group II): 94.8 h
half-life ([2]; inhaled, 3.6 mg, t½, Arithmetic Mean (SD), 3.6 mg s.d., Day 1): 6.41 h
half-life ([2]; inhaled, 3.6 mg, t½, Geometric Mean (Range), 3.6 mg m.d., Day 19, Group II): 92.9 h
half-life ([2]; inhaled, 3.6 mg, t½, Geometric Mean (Range), 3.6 mg s.d., Day 1): 6.01 h
Tmax ([2]; inhaled, Tmax range, both dose levels, after single and multiple dose administration): 1.8 to 4.8 min
ratios of AUC(0-8) after multiple dosing versus AUC(0-inf) after single dose (linearity) ([2]; in vivo): did not deviate clearly or significantly from unity
Cmax and AUC values versus dose ([2]; single and multiple dose administration, 1.2 and 3.6 mg): Dose-related increases
Choice Reaction Time against placebo (healthy subjects [3]): significant decrement; also recorded: significant benefit
Delayed Word Recall Words Correctly Recalled, primary analysis (healthy subjects [3]): no significant effect of dose
Delayed Word Recognition Sensitivity Index, primary analysis (healthy subjects [3]): no significant effect of dose
Delayed Word Recognition Speed against placebo (healthy subjects [3]): benefits
Digit Vigilance Speed, primary analysis (healthy subjects [3]): no significant effect of dose
Digit Vigilance Targets Detected, baseline score (healthy subjects [3]): 95.6% and 96.7% and 97.4% and 98.5%
Immediate Word Recall Words Correctly Recalled, primary analysis (healthy subjects [3]): no significant effect of dose
Numeric Working Memory Sensitivity Index, primary analysis (healthy subjects [3]): no significant effect of dose
Numeric Working Memory Speed, primary analysis (healthy subjects [3]): no significant effect of dose
Picture Recognition Sensitivity Index, primary analysis (healthy subjects [3]): no significant effect of dose
Picture Recognition Speed, primary analysis (healthy subjects [3]): no dose*time interaction
Self-rated Alertness, comparisons against placebo (healthy subjects [3]): no decrements
Self-rated Calmness, primary analysis (healthy subjects [3]): no significant effect of dose
Self-rated Contentment, comparisons (healthy subjects [3]): no support for differences between the doses on either day
Simple Reaction Time, comparisons (healthy subjects [3]): did not show any significant differences
Spatial Working Memory Sensitivity Index against placebo (healthy subjects [3]): significant decrement
Spatial Working Memory Sensitivity Index, primary analysis (healthy subjects [3]): significant main effect of dose
Spatial Working Memory Speed, primary analysis (healthy subjects [3]): no significant effect of dose
Tracking Average Distance from Target, primary analysis (healthy subjects [3]): no significant effect of dose
cognitive function effects (summary) (healthy subjects [3]): Minimal cognitive function effects
